# Test results from patent US20250205208A1, “USE OF SU3327 IN PREPARATION OF MEDICAMENT FOR REDUCING CYTOTOXICITY AND NEPHROTOXICITY OF POLYMYXIN” (XIAMEN HANLIXIN PHARMACEUTICAL CO., LTD., priority 2023, published 2025).
# pIC50: −log10 of the molar value.
# Assays:
# HEK293 cells = test: Cell viability test by CCK-8 method; type: cell-based, Human
# Experimental: Human Embryonic Kidney cells (HEK293), preserved by National Center for Veterinary Drug Safety Evaluation of China Agricultural University.
# Cytotoxicity was determined by a CCK-8 method. After HEK293 cells (5×10^4 cells/well) were seeded onto 96-well tissue culture plates and cultured for 24 hours, the cells were treated with SU3327 or Polymyxin E alone or in combination, with SU3327 in a final concentration of 5 μM, 2.5 μM, 1.25 μM and 0.625 μM; Polymyxin E in a final concentration of 2 mM; combination groups of SU3327 and Polymyxin E: Polymyxin E (2 mM)+SU3327 (5 μM), Polymyxin E (2 mM)+SU3327 (2.5 μM), Polymyxin E (2 mM)+SU3327 (1.25 μM), Polymyxin E (2 mM)+SU3327 (0.625 μM), and control group (Control) 0.1% DMSO. Following continued culture for 24 h, a CCK-8 kit was used to detect the changes in cell viability.
# [1] = system: mice having kidney damage induced by Polymyxin E; test: Mouse model of nephrotoxicity by Polymyxin E: kidney histopathology and semiquantitative scoring (SQS); type: in vivo, C57BL/6 mice; conditions: for pathological damage score: 10 days, P<0.001
# Experimental: (§1) C57BL/6 mice, male, 8-week-old, weighing 20-22 g, purchased from Vital River Laboratory Animal Technology Co., Ltd.
# (§2) The mice were housed in the National Center for Veterinary Drug Safety Evaluation of China Agricultural University, fed with routine pelleted feed and free access to water, at a controlled temperature of (22±2)° C., and a humidity of (50±10) %. Adaptive housing was performed for 1 week before experiments.
# (§3) […] were randomly divided into 6 groups (n=8 in each group), as follows:
# (§4) Control group: the mice were intraperitoneally injected with an equivalent amount of normal saline.
# (§5) Polymyxin E model group: the mice were intraperitoneally injected with Polymyxin E
# (§6) at a single dose of 10 mg/kg body weight, twice a day, with an interval of 8 hours between doses; i.e., the mice were administered with Polymyxin E in 20 mg/kg body weight per day.
# (§7) SU3327 control group: the mice were intraperitoneally injected with dissolved SU3327 at a single dose of 10 mg/kg body weight, once a day for 10 straight days; i.e., the mice were administered with SU3327 in 10 mg/kg body weight per day.
# (§8) SU3327 high-dose protection group: the mice were intraperitoneally injected with SU3327 at a single dose of 10 mg/kg body weight, concurrently with Polymyxin E in 10 mg/kg, twice, with an interval of 8 hours between doses; i.e., the mice were administered with SU3327 in 10 mg/kg body weight per day, concurrently with Polymyxin E in 20 mg/kg body weight per day.
# as §8, with “medium-dose” for “high-dose”, “[…]” for “10”
# as §8, with “SU3327 low-dose protection group:” for “SU3327 high-dose protection group:”, “dose of 2.5 mg/kg body” for “dose of 10 mg/kg body”, “SU3327 in 2.5 mg/kg body” for “SU3327 in 10 mg/kg body”
# In the experiments above, reference was made to the previously published literature by the inventors for the method of establishing the mouse model of nephrotoxicity by Polymyxin E (Dai C, Tang S, Wang Y, Velkov T, Xiao X. Baicalein acts as a nephroprotectant that ameliorates colistin-induced nephrotoxicity by activating the antioxidant defence mechanism of the kidneys and down-regulating the inflammatory response. J Antimicrob Chemother. 2017 Sep. 1; 72(9):2562-2569).
# Following dosing by injection for 10 straight days, the mice were euthanized by intraperitoneal injection with an overdose of sodium pentobarbital (80 mg/kg) 24 hours post the last dosing, and blood and kidney tissues were collected quickly, the serum and tissues were processed as follows.
# The isolated, fresh kidney tissues were washed with normal saline, sampled and fixed in 10% neutral formalin for 48 h, after being flushed with water, and then dehydrated, cleared, immersed in paraffin, embedded, sectioned and stained in sequence. The pathological changes in kidney tissues were observed and photographed under a microscope. HE staining: the paraffin sections were taken, and placed in an oven at a constant temperature of 60° C. for 30 min; followed by paraffin removal and dehydration with ethanol, and immersing with double distilled water; hematoxylin staining for 10 min, rinsing with tap water, and differentiation with acid alcohol; flushing with running water until the sections turned blue; 95% ethanol for 30 s, alcoholic eosin staining for 30 s, 95% ethanol for 30 s, and 100% ethanol for 30 s; clearing with Xylene, and sealing with neutral gum.
# Following HE staining, damages to the renal tissues were evaluated using a semiquantitative scoring (SQS). […]
# [2] = system: mice having kidney damage induced by Polymyxin E; test: Mouse model of nephrotoxicity by Polymyxin E: urea nitrogen and creatinine in serum; type: in vivo, C57BL/6 mice
# Experimental: as §1, §2, §3, §4, §5, §6, §7, §8
# as §8, with “medium-dose” for “high-dose”, “[…]” for “10”
# SU3327 low-dose protection group: the mice were intraperitoneally injected with SU3327 at a single dose of 2.5 mg/kg body weight, concurrently with Polymyxin E in 10 mg/kg, twice, with an interval of 8 hours between doses; i.e., the mice were administered with SU3327 in 2.5 mg/kg body weight per day, concurrently with Polymyxin E in 20 mg/kg body weight per day. […]
# The blood samples collected from the mice were centrifuged at 3000 rpm for 10 min, and the supernatant was aspirated. The changes of urea nitrogen in serum and creatinine in serum were detected by an automatic biochemical detector.
# [3] = in vivo; cited from earlier work
# Akt kinases = conditions: cited from earlier work
# Clostridium difficile = conditions: laboratory tests, Collins group, Cell 2020; cited from earlier work
# p38α = p38α (Homo sapiens, UniProt Q16539); conditions: cited from earlier work
# p38α, sequence (Q16539 whole entry): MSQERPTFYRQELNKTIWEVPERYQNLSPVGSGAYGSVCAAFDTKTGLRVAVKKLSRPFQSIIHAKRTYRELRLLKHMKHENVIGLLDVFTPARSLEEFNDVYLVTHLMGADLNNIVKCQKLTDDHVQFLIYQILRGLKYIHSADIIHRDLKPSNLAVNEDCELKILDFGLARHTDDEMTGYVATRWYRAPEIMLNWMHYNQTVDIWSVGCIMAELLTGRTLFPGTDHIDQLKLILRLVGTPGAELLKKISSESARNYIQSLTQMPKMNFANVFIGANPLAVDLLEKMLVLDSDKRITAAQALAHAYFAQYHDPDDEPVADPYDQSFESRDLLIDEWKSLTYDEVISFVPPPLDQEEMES
# JNK and JIP = conditions: read-out: IC50 for inhibition of protein interaction between JNK and JIP; cited from earlier work
# E. coli = conditions: laboratory tests, Collins group, Cell 2020; cited from earlier work
# [4] = system: Mycobacterium tuberculosis; conditions: laboratory tests, Collins group, Cell 2020; cited from earlier work
# JNK = conditions: read-out: IC50 as JNK inhibitor; cited from earlier work
# [5] = Polymyxin E 20 mg/kg per day i.p. for 10 straight days
# [6] = SU3327 at 2.5, 5 and 10 mg/kg i.p. in combination with Polymyxin E 20 mg/kg per day, 10 days
compound,measurement,setting,value
Polymyxin E,cell viability,"HEK293 cells; polymyxin alone 2 mM, 24 hours",55.3%
same,average of pathological semiquantitative score,[1]; [5],3
same,"kidney pathological damages (epithelial cell shedding, necrosis, tubular casts)",[1]; [5],obvious pathological damages
same,level of BUN in the serum compared to control group,[2]; [5],significantly up-regulated
same,level of CRE in the serum compared to control group,[2]; [5],significantly up-regulated
same,clinical incidence of nephrotoxicity,[3],up to 60%
same,clinical incidence of neurotoxicity,[3],about 7%
same,clinical incidence of symptoms from mild peripheral neurotoxicity,[3],≤ 100%
Nc1nnc(Sc2ncc([N+](=O)[O-])s2)s1 [SU3327],cell viability,"HEK293 cells; SU3327 2.5 μM in combination with Polymyxin E 2 mM, 24 h",68.5%
same,cell viability compared to treatment group with polymyxin alone,"HEK293 cells; SU3327 (5-0.625 μM) in combination with Polymyxin E 2 mM, 24 h",increased to some extent
same,cell viability compared with control group,"HEK293 cells; SU3327 alone in 5 μM, 2.5 μM, 1.25 μM and 0.625 μM, 24 h",significantly changed
same,activity for Akt kinases,Akt kinases,low activity
same,pathological damage score,[1]; SU3327 2.5 mg/kg i.p. in combination with Polymyxin E 20 mg/kg per day,1
same,pathological damage score,[1]; SU3327 5 mg/kg i.p. in combination with Polymyxin E 20 mg/kg per day,0.75
same,pathological damage score,[1]; SU3327 10 mg/kg i.p. in combination with Polymyxin E 20 mg/kg per day,0.5
same,pathological changes in renal tubules,[1]; SU3327 in combination with Polymyxin E,remarkably improved
same,killing of Clostridium difficile,Clostridium difficile,killed
same,level of creatinine in the serum compared to Polymyxin E model group,[2]; [6],significantly lowered
same,level of urea nitrogen in the serum compared to Polymyxin E model group,[2]; [6],significantly lowered
same,activity for p38α,p38α,low activity
same,pIC50,JNK and JIP,6.62
same,growth of E. coli,E. coli,effectively prevented the growth
same,killing of Mycobacterium tuberculosis,[4],killed
same,pIC50,JNK,6.15
